Patent publication US8192962B2, “Processes for detecting toxic substances” (Daikin Industries, Ltd., priority 2001, dated 2012)

Test system: Metabolism protein genes
Assay: DNA chip mRNA expression in yeast, metabolism protein genes (Table 7)
Format: cell-based, Saccharomyces cerevisiae S288C
In short: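 Measured as treated-to-untreated fluorescence ratio on a full-genome yeast DNA chip. Cells (S288C, YPD, 25° C.) were exposed in log phase for two hours to one chemical, dosed to curb growth without killing.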

N#Cc1c(Cl)c(Cl)c(Cl)c(C#N)c1Cl [(9), 2,4,5,6-tetrachloro-1,3-benzenedicarbonitrile]
level of expressed mRNA in the presence/in the absence of chemical substance (yeast gene YJL121C): 0.1 | The level of expressed mRNA in the presence of chemical substance/The level of expressed mRNA in the absence of chemical substance (yeast gene YJL172W): 0.7 | The level of expressed mRNA in the presence of chemical substance/The level of expressed mRNA in the absence of chemical substance (yeast gene YJL219W): 4.0 | The level of expressed mRNA in the presence of chemical substance/The level of expressed mRNA in the absence of chemical substance (yeast gene YJL221C): 2.7 | level of expressed mRNA in the presence/in the absence of chemical substance (yeast gene YJR077C): 0.4 | The level of expressed mRNA in the presence of chemical substance/The level of expressed mRNA in the absence of chemical substance (yeast gene YJR137C): 9.0 | level of expressed mRNA in the presence/in the absence of chemical substance (yeast gene YJR143C): 0.1 | The level of expressed mRNA in the presence of chemical substance/The level of expressed mRNA in the absence of chemical substance (yeast gene YJR148W): 0.7 | The level of expressed mRNA in the presence of chemical substance/The level of expressed mRNA in the absence of chemical substance (yeast gene YJR155W): 38.2 | The level of expressed mRNA in the presence of chemical substance/The level of expressed mRNA in the absence of chemical substance (yeast gene YKL035W): 0.8 | level of expressed mRNA in the presence/in the absence of chemical substance (yeast gene YKL060C): 0.3 | The level of expressed mRNA in the presence of chemical substance/The level of expressed mRNA in the absence of chemical substance (yeast gene YKL091C): 2.3 | The level of expressed mRNA in the presence of chemical substance/The level of expressed mRNA in the absence of chemical substance (yeast gene YKL104C): 1.4 | level of expressed mRNA in the presence/in the absence of chemical substance (yeast gene YKL148C): 1.7 | The level of expressed mRNA in the presence of chemical substance/The level of expressed mRNA in the absence of chemical substance (yeast gene YKL152C): 0.9 | level of expressed mRNA in the presence/in the absence of chemical substance (yeast gene YKL157W): 1.7 | The level of expressed mRNA in the presence of chemical substance/The level of expressed mRNA in the absence of chemical substance (yeast gene YKL213C): 4.8 | The level of expressed mRNA in the presence of chemical substance/The level of expressed mRNA in the absence of chemical substance (yeast gene YKL215C): 1.3 | level of expressed mRNA in the presence/in the absence of chemical substance (yeast gene YKR034W): 0.5 | The level of expressed mRNA in the presence of chemical substance/The level of expressed mRNA in the absence of chemical substance (yeast gene YKR039W): 1.9 | The level of expressed mRNA in the presence of chemical substance/The level of expressed mRNA in the absence of chemical substance (yeast gene YLL058W): 3.5 | level of expressed mRNA in the presence/in the absence of chemical substance (yeast gene YLR006C): 1.1 | level of expressed mRNA in the presence/in the absence of chemical substance (yeast gene YLR058C): 0.2 | level of expressed mRNA in the presence/in the absence of chemical substance (yeast gene YLR081W): 0.1 | level of expressed mRNA in the presence/in the absence of chemical substance (yeast gene YLR089C): 0.5 | The level of expressed mRNA in the presence of chemical substance/The level of expressed mRNA in the absence of chemical substance (yeast gene YLR142W): 3.1 | The level of expressed mRNA in the presence of chemical substance/The level of expressed mRNA in the absence of chemical substance (yeast gene YLR164W): 5.3 | The level of expressed mRNA in the presence of chemical substance/The level of expressed mRNA in the absence of chemical substance (yeast gene YLR180W): 0.8 | The level of expressed mRNA in the presence of chemical substance/The level of expressed mRNA in the absence of chemical substance (yeast gene YLR260W): 2.6 | The level of expressed mRNA in the presence of chemical substance/The level of expressed mRNA in the absence of chemical substance (yeast gene YLR273C): 2.8 | level of expressed mRNA in the presence/in the absence of chemical substance (yeast gene YLR284C): 0.9 | The level of expressed mRNA in the presence of chemical substance/The level of expressed mRNA in the absence of chemical substance (yeast gene YLR299W): 4.9 | The level of expressed mRNA in the presence of chemical substance/The level of expressed mRNA in the absence of chemical substance (yeast gene YLR300W): 0.0 | level of expressed mRNA in the presence/in the absence of chemical substance (yeast gene YLR304C): 0.1 | The level of expressed mRNA in the presence of chemical substance/The level of expressed mRNA in the absence of chemical substance (yeast gene YLR307W): 0.6 | The level of expressed mRNA in the presence of chemical substance/The level of expressed mRNA in the absence of chemical substance (yeast gene YLR348C): 2.1 | level of expressed mRNA in the presence/in the absence of chemical substance (yeast gene YLR354C): 0.4 | level of expressed mRNA in the presence/in the absence of chemical substance (yeast gene YML022W): 0.3 | The level of expressed mRNA in the presence of chemical substance/The level of expressed mRNA in the absence of chemical substance (yeast gene YML042W): 3.8 | The level of expressed mRNA in the presence of chemical substance/The level of expressed mRNA in the absence of chemical substance (yeast gene YML054C): 4.1 | The level of expressed mRNA in the presence of chemical substance/The level of expressed mRNA in the absence of chemical substance (yeast gene YML070W): 4.5 | The level of expressed mRNA in the presence of chemical substance/The level of expressed mRNA in the absence of chemical substance (yeast gene YML100W): 1.7 | The level of expressed mRNA in the presence of chemical substance/The level of expressed mRNA in the absence of chemical substance (yeast gene YML110C): 2.7 | The level of expressed mRNA in the presence of chemical substance/The level of expressed mRNA in the absence of chemical substance (yeast gene YMR008C): 0.3 | level of expressed mRNA in the presence/in the absence of chemical substance (yeast gene YMR015C): 0.1 | The level of expressed mRNA in the presence of chemical substance/The level of expressed mRNA in the absence of chemical substance (yeast gene YMR020W): 2.3 | level of expressed mRNA in the presence/in the absence of chemical substance (yeast gene YMR083W): 0.4 | The level of expressed mRNA in the presence of chemical substance/The level of expressed mRNA in the absence of chemical substance (yeast gene YMR105C): 0.6 | The level of expressed mRNA in the presence of chemical substance/The level of expressed mRNA in the absence of chemical substance (yeast gene YMR189W): 0.7 | level of expressed mRNA in the presence/in the absence of chemical substance (yeast gene YMR205C): 0.3 | level of expressed mRNA in the presence/in the absence of chemical substance (yeast gene YMR261C): 1.6 | The level of expressed mRNA in the presence of chemical substance/The level of expressed mRNA in the absence of chemical substance (yeast gene YMR271C): 8.0 | The level of expressed mRNA in the presence of chemical substance/The level of expressed mRNA in the absence of chemical substance (yeast gene YMR296C): 0.4 | level of expressed mRNA in the presence/in the absence of chemical substance (yeast gene YMR323W): 0.5 | The level of expressed mRNA in the presence of chemical substance/The level of expressed mRNA in the absence of chemical substance (yeast gene YNL012W): 3.3 | level of expressed mRNA in the presence/in the absence of chemical substance (yeast gene YNL025C): 1.1 | The level of expressed mRNA in the presence of chemical substance/The level of expressed mRNA in the absence of chemical substance (yeast gene YNL037C): 0.6 | The level of expressed mRNA in the presence of chemical substance/The level of expressed mRNA in the absence of chemical substance (yeast gene YNL045W): 1.3 | The level of expressed mRNA in the presence of chemical substance/The level of expressed mRNA in the absence of chemical substance (yeast gene YNL104C): 1.1 | The level of expressed mRNA in the presence of chemical substance/The level of expressed mRNA in the absence of chemical substance (yeast gene YNL106C): 0.7 | The level of expressed mRNA in the presence of chemical substance/The level of expressed mRNA in the absence of chemical substance (yeast gene YNL169C): 1.1 | The level of expressed mRNA in the presence of chemical substance/The level of expressed mRNA in the absence of chemical substance (yeast gene YNL231C): 2.2 | The level of expressed mRNA in the presence of chemical substance/The level of expressed mRNA in the absence of chemical substance (yeast gene YNL264C): 3.3 | The level of expressed mRNA in the presence of chemical substance/The level of expressed mRNA in the absence of chemical substance (yeast gene YNL322C): 0.7 | The level of expressed mRNA in the presence of chemical substance/The level of expressed mRNA in the absence of chemical substance (yeast gene YNL331C): 42.6 | The level of expressed mRNA in the presence of chemical substance/The level of expressed mRNA in the absence of chemical substance (yeast gene YNL332W): 3.3 | The level of expressed mRNA in the presence of chemical substance/The level of expressed mRNA in the absence of chemical substance (yeast gene YNR002C): 3.9 | The level of expressed mRNA in the presence of chemical substance/The level of expressed mRNA in the absence of chemical substance (yeast gene YNR019W): 1.8 | The level of expressed mRNA in the presence of chemical substance/The level of expressed mRNA in the absence of chemical substance (yeast gene YNR033W): 3.6 | The level of expressed mRNA in the presence of chemical substance/The level of expressed mRNA in the absence of chemical substance (yeast gene YNR059W): 1.8 | The level of expressed mRNA in the presence of chemical substance/The level of expressed mRNA in the absence of chemical substance (yeast gene YNR071C): 3.1 | The level of expressed mRNA in the presence of chemical substance/The level of expressed mRNA in the absence of chemical substance (yeast gene YOL058W): 0.1 | level of expressed mRNA in the presence/in the absence of chemical substance (yeast gene YOL086C): 0.1 | The level of expressed mRNA in the presence of chemical substance/The level of expressed mRNA in the absence of chemical substance (yeast gene YOL126C): 0.8 | The level of expressed mRNA in the presence of chemical substance/The level of expressed mRNA in the absence of chemical substance (yeast gene YOL143C): 0.8 | The level of expressed mRNA in the presence of chemical substance/The level of expressed mRNA in the absence of chemical substance (yeast gene YOL153C): 2.5 | level of expressed mRNA in the presence/in the absence of chemical substance (yeast gene YOL156W): 2.3 | The level of expressed mRNA in the presence of chemical substance/The level of expressed mRNA in the absence of chemical substance (yeast gene YOL165C): 46.9 | level of expressed mRNA in the presence/in the absence of chemical substance (yeast gene YOR002W): 0.8 | level of expressed mRNA in the presence/in the absence of chemical substance (yeast gene YOR085W): 0.5 | The level of expressed mRNA in the presence of chemical substance/The level of expressed mRNA in the absence of chemical substance (yeast gene YOR099W): 0.6 | level of expressed mRNA in the presence/in the absence of chemical substance (yeast gene YOR108W): 0.4 | level of expressed mRNA in the presence/in the absence of chemical substance (yeast gene YOR128C): 0.3 | The level of expressed mRNA in the presence of chemical substance/The level of expressed mRNA in the absence of chemical substance (yeast gene YOR130C): 2.0 | The level of expressed mRNA in the presence of chemical substance/The level of expressed mRNA in the absence of chemical substance (yeast gene YOR136W): 0.3 | level of expressed mRNA in the presence/in the absence of chemical substance (yeast gene YOR142W): 1.1 | level of expressed mRNA in the presence/in the absence of chemical substance (yeast gene YOR176W): 1.0 | level of expressed mRNA in the presence/in the absence of chemical substance (yeast gene YOR178C): 0.2 | The level of expressed mRNA in the presence of chemical substance/The level of expressed mRNA in the absence of chemical substance (yeast gene YOR226C): 1.3 | The level of expressed mRNA in the presence of chemical substance/The level of expressed mRNA in the absence of chemical substance (yeast gene YOR336W): 1.7 | The level of expressed mRNA in the presence of chemical substance/The level of expressed mRNA in the absence of chemical substance (yeast gene YOR347C): 0.5 | The level of expressed mRNA in the presence of chemical substance/The level of expressed mRNA in the absence of chemical substance (yeast gene YOR377W): 3.8 | The level of expressed mRNA in the presence of chemical substance/The level of expressed mRNA in the absence of chemical substance (yeast gene YPL017C): 3.0 | level of expressed mRNA in the presence/in the absence of chemical substance (yeast gene YPL028W): 1.2 | level of expressed mRNA in the presence/in the absence of chemical substance (yeast gene YPL057C): 0.4 | level of expressed mRNA in the presence/in the absence of chemical substance (yeast gene YPL135W): 0.5 | The level of expressed mRNA in the presence of chemical substance/The level of expressed mRNA in the absence of chemical substance (yeast gene YPR026W): 0.9 | level of expressed mRNA in the presence/in the absence of chemical substance (yeast gene YPR113W): 0.4 | The level of expressed mRNA in the presence of chemical substance/The level of expressed mRNA in the absence of chemical substance (yeast gene YPR167C): 76.6 | level of expressed mRNA in the presence/in the absence of chemical substance (yeast gene YPR183W): 0.9
